# In patent US10899788B2, “Cyclic phosphate substituted nucleoside compounds and methods of use thereof for the treatment of viral diseases” (MERCK SHARP & DOHME CORP., priority 2016, dated 2021):
# What was measured:
# [1] = Cytotoxicity assay in replicon cells (MTS); assay type: cell-based; settings: HCV replicon cells (1b-Con1), three days post dosing, head prints EDU, method MTS, read-out: CC50 (EDU) Range
# Description: (§1) To measure cell-based anti-HCV activity of the compounds of the present invention, replicon cells (1b-Con1) are seeded at 5000 cells/well in 96-well plates one day prior to treatment with a compound of the invention. Various concentrations of a test compound of the invention in DMSO are then added to the replicon cells, with the final concentration of DMSO at 0.5% and fetal bovine serum at 10% in the assay media. Cells are harvested three days post-dosing, and the replicon RNA level is determined using real-time RT-PCR (Taqman assay) with GAPDH RNA as endogenous control. EC50 values are calculated from experiments with 10 serial twofold dilutions of the inhibitor in triplicate. To measure cytotoxicity in replicon cells of an inhibitor, an MTS assay is performed according to the manufacturer's protocol for CellTiter 96 Aqueous One Solution Cell Proliferation Assay (Promega, Cat #G3580) three days post dosing on cells treated identically as in replicon activity assays. […] Cytotoxicity in other types of cells may be measured using the same MTS protocol.
# (§2) Data were obtained using this method for selected compounds of the present invention, and are set forth below in Table 2.
# [2] = test system: HCV replicon cells (1b-Con1); assay: Replicon activity assay (cell-based anti-HCV activity); settings: Hepatitis C virus, 72 h, three days post-dosing, replicon RNA level by real-time RT-PCR, read-out: EC50 (1b) Range
# Description: as §1, §2
SMILES,CC50 at 3 days [1] [µM],EC50 [2] [µM]
C#C[C@@]1(O)[C@@H]2O[P@](=O)(OCCCCC(=O)OC3CCCC3)OC[C@H]2O[C@H]1n1ccc(=O)[nH]c1=O [Compound 24B],> 50,≤ 0.25
CC(C)OC(=O)CCCCO[P@@]1(=O)OC[C@H]2O[C@@H](n3ccc(=O)[nH]c3=O)[C@](C)(N)[C@@H]2O1 [Compound 14A],> 50,> 10
C[C@@]1(Cl)[C@@H]2O[P@](=O)(OCCCC(=O)OC3CCCC3)OC[C@H]2O[C@H]1n1ccc(N)nc1=O [Compound 6B],> 50,≤ 0.25
CCCCOC(=O)CCCO[P@@]1(=O)OC[C@H]2O[C@@H](n3ccc(=O)[nH]c3=O)[C@](C)(N)[C@@H]2O1 [Compound 4A],> 50,> 10
C#C[C@]1(C)[C@@H]2O[P@](=O)(OCCCCC(=O)OC)OC[C@H]2O[C@H]1n1ccc(=O)[nH]c1=O [Compound 22B],> 50,> 10
CC(C)OC(=O)CCCO[P@@]1(=O)OC[C@H]2O[C@@H](n3ccc(N)nc3=O)[C@](C)(N)[C@@H]2O1 [Compound 10A],> 50,> 10
CCOc1nc(N)nc2c1ncn2[C@@H]1O[C@@H]2CO[P@@](=O)(OCCCC(=O)OC(C)C)O[C@H]2[C@@]1(C)N [Compound 3B],> 50,1 to 10
CC(C)OC(=O)CCCCO[P@@]1(=O)OC[C@H]2O[C@@H](n3ccc(=O)[nH]c3=O)[C@](C)(Cl)[C@@H]2O1 [Compound 18A],> 50,1 to 10
C[C@@]1(N)[C@@H]2O[P@@](=O)(OCCCC(=O)OC3CCCC3)OC[C@H]2O[C@H]1n1ccc(=O)[nH]c1=O [Compound 5A],> 50,> 10
C#C[C@@]1(O)[C@@H]2O[P@@](=O)(OCCCCC(=O)OC3CCCC3)OC[C@H]2O[C@H]1n1ccc(=O)[nH]c1=O [Compound 24A],> 50,1 to 10
C[C@@]1(Cl)[C@@H]2O[P@@](=O)(OCCCC(=O)OC3CCCC3)OC[C@H]2O[C@H]1n1ccc(N)nc1=O [Compound 6A],> 50,> 10
C[C@@]1(N)[C@@H]2O[P@](=O)(OCCCC(=O)OC3CCCC3)OC[C@H]2O[C@H]1n1ccc(=O)[nH]c1=O [Compound 5B],> 50,> 10
CC(C)OC(=O)CCCO[P@]1(=O)OC[C@H]2O[C@@H](n3ccc(N)nc3=O)[C@](C)(N)[C@@H]2O1 [Compound 10B],> 50,> 10
